Measured values: patent US11834640B2, “Device and uses thereof for treating diabetes” (Board of Regents, The University of Texas System, priority 2019, dated 2023)

What was measured:
Type in all cases: cell-based, mouse
[1] = tested on: βTC-6 cells; experiment: Calcium spiking frequency (Fluo-8) after 810 nm PBM exposure, pharmacologic studies
Experimental: Cell Culture. […] Cell passage was performed weekly with 0.25% Trypsin-EDTA. Samples were prepared by seeding βTC-6 cells on glass coverslips in low glucose media. These samples were used for experimentation between days 2 through 5. All cells were incubated at 37° C. in a 5% CO2 environment.
(§1) PBM Parameters. A Cytonsys (Austin, TX) 810 nm near-infrared laser was used to perform all experimentation. […] Herein, all βTC-6 samples were exposed to 810 nm for 1 minute with an irradiance of 150 mW/cm^2, resulting in a fluence of 9 J/cm^2. To measure the bulk temperature rise that was due to laser exposure, an Omega HH42A thermistor was used before and after irradiation.
(§2) Live Cell Imaging. For calcium and mitochondrial superoxide (mROS) detection, the cells were stained with Fluo-8 (0.8 μM, Abcam, Cambridge, UK), Mitosox (5 μM, Thermo-Fisher, Waltham, MA) and 1 drop/mL of Nucblue (Thermo-Fisher, Waltham, MA) for detection of intracellular calcium, mROS, and nucleic acid, respectively. The fluorescent dye DAF-FM (5 μM, Thermo-Fisher) was used to detect and measure cytosolic nitric oxide (NO). Hanks balanced salt solution (HBSS) was used (H8264, Sigma, St. Louis, MO) unless stated otherwise. Samples were stained at 37° C. for 30 minutes before being washed and mounted onto the imaging chamber.
Calcium Activity Analysis. Regions of interest (ROIs) were placed on individual cells using the nucleic acid staining and transferred to perform and calculate mean fluorescent intensity over time with background subtraction. Approximately 100 to 200 cells were monitored for each data point, and the results were averaged. A conservative moving average threshold (10 data points) with a 10% cutoff was used to determine a calcium spike. […] The active population was defined by the total number of active cells divided by the number of cells analyzed. The average spiking frequency of these active cells was then determined at each time point. Measurements were taken using Nikon Elements software and data analysis was carried out using Microsoft Excel. […]

[2] = tested on: βTC-6 cells; experiment: Mitochondrial superoxide (MitoSOX intensity) after 810 nm PBM exposure; conditions: ascorbic acid 2.5 mM, 9 J/cm^2
Experimental: as §1, with “experimentation. […] The energy density of 9 J/cm^2 was previously shown to have therapeutic effects on hepatic tissue in a diabetic state.” for “experimentation.”
as §2
Pharmacologic Studies. All drugs were added to the staining buffer. Samples were treated with each drug for 30 minutes before imaging. For L-type VGCC blocking, Verapamil (100 μM, V4629, Sigma) was applied. Capsazepine (10 μM, C191, Sigma) was added as a TRPV1 antagonist. […]

[3] = tested on: βTC-6 insulinoma cells; experiment: Intracellular calcium rise (Fluo-8) after electric field exposure, blocking experiment; conditions: verapamil 100 μM, incubated 30 minutes before 3 V/cm EF for 15 min, HBSS
Experimental: Calcium labeling and depletion. Samples were washed with HBSS (Sigma) and incubated with 0.8 μM Fluo-8 (Abcam) for 30 minutes. NucBlue solution (Thermo) was added for 15 min in accordance to the manufacturer's recommended concentration to stain the nuclei. Cells were washed again and mounted onto the chamber. Changes in the Fluo-8 fluorescent intensity were monitored and recorded. Fluorescent images were acquired for 2 min at 5 s intervals with a 250 ms exposure time before and after the DCEF was applied. Image analysis was performed using the Nikon Elements image processor by identifying a ROI selection on selected nuclei with mean intensity of Fluo-8 over time. […]
Calcium Fluorescent Microscopy. […] Measurements for calcium rise recorded a single static image before and after EF exposure, while calcium spiking was recorded over 2 minutes before and after EFS with a 5 second sampling interval.
Calcium Image Analysis. For calcium rise, the mean intensity of clusters in the sample were measured at 0 minute (Pre) and 15 minute (Post) time points using Nikon Elements. Background subtraction was then performed and the percent change was determined by comparing the post-exposure to the pre-exposure mean intensities. […] The mean intensity over time was measured for both the pre and post imaging sessions. […]

With O=C1O[C@H]([C@@H](O)CO)C(O)=C1O [ascorbic acid, Ascorbic Acid] the “calcium spiking frequency of active cells following PBM, AA-treated versus control” value ([1]; ascorbic acid 2.5 mM, 9 J/cm^2) was “no significant difference in the calcium spiking frequency analysis between the AA-treated and control cells until the 10-minute time point” and the “MitoSOX intensity following PBM (superoxide)” value [2] was “significant reduction in the MitoSOX intensity”.
O=C1CN(/N=C/c2ccc(-c3ccc([N+](=O)[O-])cc3)o2)C(O)=N1 [dantrolene, Dantrolene] was tested, and the “calcium spiking frequency following PBM, versus control” value ([1]; dantrolene 50 μM, 30 minutes, 9 J/cm^2, difference only noticeable at the 15-minute mark) was “decreased in comparison to the control”.
For COc1ccc(CCN(C)CCCC(C#N)(c2ccc(OC)c(OC)c2)C(C)C)cc1OC (centres unmarked) [Verapamil], the “increase in intracellular calcium level in response to EF” value [3] was “effectively blocked the increase in intracellular calcium level”.
With NCCOB(c1ccccc1)c1ccccc1 [2-APB] the “calcium spiking frequency following PBM” value ([1]; 2-APB 10 μM (FIG. 10B legend 20 μM), 30 minutes, 9 J/cm^2) was “significantly impede such an increase in the calcium spiking frequency by PBM”.
